Reference: patent US8865910B2 (priority 2010, dated 2014)
Like-named read-outs stand apart in the source and are kept apart here.

Tests used:
M. tuberculosis H37Rv = settings: BACTEC 12B medium; cited from earlier work
M. bovis BCG = assay: microbe, parasite or virus in culture; type: cell-based, Mycobacterium bovis BCG; settings: for inhibition at 100 µg/mL: Mycobacterium tuberculosis variant bovis BCG, BCG, 192 h
dormant tubercle bacilli = settings: cited from earlier work
M. tuberculosis = assay: Antitubercular activity against active and dormant bacilli of M. tuberculosis; type: cell-based, Mycobacterium tuberculosis H37Ra
[1] = read-out: Antimycobacterial activity % inhibition at 100 μg/ml Aerobic/Active stage
[2] = read-out: Antimycobacterial activity % inhibition at 100 μg/ml Anearobic/Dormant stage

Structure (SMILES) | inhibition effects in the primary screening (M. tuberculosis H37Rv) [%] | inhibition at 100 µg/mL (M. bovis BCG; [1]) [%] | inhibition at 100 µg/mL (M. bovis BCG; [2]) [%] | further results
CCCSc1nnc(-c2ncc([N+](=O)[O-])n2C)s1 [2-(1-Methyl-5-nitro-1H-imidazol-2-yl)-5-(n-propyl)thio-1,3,4-thiadiazole] | 90 | – | – | –
O=[N+]([O-])c1ccc(-c2nnc(SCc3ccccc3[N+](=O)[O-])s2)o1 [2-(5-nitro-2-furyl)-5-(2-nitrobenzyl)thio-1,3,4-thiadiazole] | 90 | – | – | –
C#CCSc1nnc(-c2ccc([N+](=O)[O-])o2)s1 [2-(5-nitro-2-furyl)-5-(2-propynyl)thio-1,3,4-thiadiazole] | 90 | – | – | –
O=[N+]([O-])c1cccc(CSc2nnc(-c3ccc([N+](=O)[O-])o3)s2)c1 [2-(5-nitro-2-furyl)-5-(3-nitrobenzyl)thio-1,3,4-thiadiazole] | 90 | – | – | –
O=[N+]([O-])c1ccc(CSc2nnc(-c3ccc([N+](=O)[O-])o3)s2)cc1 [2-(5-nitro-2furyl)-5-(4-nitrobenzyl)thio-1,3,4-thiadiazole] | 90 | – | – | –
C=C(C)Cn1nc(Br)nc1Br [11c, 3,5-dibromo-1-(2-methylallyl)-1H-1,2,4-triazole] | – | 9 | 19 | –
Brc1nc(Br)n(Cc2cn(Cc3ccccc3)nn2)n1 [11d, 1-benzyl-4-((3,5-dibromo-1H-1,2,4-triazol-1-yl)methyl)-1H-1,2,3-triazole] | – | 2 | 13 | –
OC(Cn1cncn1)(Cn1cncn1)c1ccc(F)cc1F [Fluconazole] | – | – | – | Effectiveness against dormant tubercle bacilli (dormant tubercle bacilli): not effective
C=CCSc1n[nH]c(-c2ccc(Cl)cc2)n1 [compound 4f, 3-(allylthio)-5-(4-chlorophenyl)-1H-1,2,4-triazole] | – | 98 | 91 | Effectiveness against active and dormant stage of the bacilli (M. bovis BCG; M. bovis BCG, active and dormant stage): effective against both active as well as dormant stage; Effectiveness against active and dormant stage of the bacilli (M. tuberculosis): effective against both active as well as dormant stage
CC(C)(C)C(O)(CCc1ccc(Cl)cc1)Cn1cncn1 (stereo not drawn) [tebuconazole] | – | – | – | Effectiveness against dormant tubercle bacilli (dormant tubercle bacilli): not effective
